Data on 24 molecules can be found in patent US20060258630A1, “Method for the prevention and treatment of uveitis” (BioXell S.p.A., priority 2003, published 2006).

The test system of one series is female C57BL/6 mice. The series is described as follows: Determination of maximum tolerated dose (MTD), serum calcium / hypercalcemia. The settings on record: for MTD (mice): oral daily for four days, highest dose without hypercalcemia (serum calcium>10.7 mg/dl); for MTD compared with the corresponding parent dihydroxy compound: (2) vs (1), (4) and (5) vs (3). As for the experimental part:
(§1) The maximum tolerated dose of the vitamin D3 compounds of the invention were determined in eight week-old female C57BL/6 mice (3 mice/group) dosed orally (0.1 ml/mouse) with various concentrations of Vitamin D3 analogs daily for four days. Analogs were formulated in miglyol for a final concentration of 0.01, 0.03, 0.1 0.3, 1, 3, 10, 30, 100 and 300 μg/kg when given at 0.1 ml/mouse p.o. daily. Blood for serum calcium assay was drawn by tail bleed on day five, the final day of the study.

The subject of series [1] is IFN-γ production in allogeneic PBMC co-culture (MLR). The series can be described thus: IFN-γ production by allogeneic T cell activation in the mixed leukocyte response (MLR), ELISA. In kind it is cell-based. Particulars: 120 h, 5 days, read-out: INF-γ IC50. The procedure: Immature dendritic cells. (DC) were prepared as described in Romani, N. et al. (Romani, N. et al. (1996) J. Immunol. Meth. 196:137). IFN-γ production by allogeneic T cell activation in the mixed leukocyte response (MLR) was determined as described in Penna, G., et al., J Immunol., 164: 2405-2411 (2000).
Briefly, peripheral blood mononuclear cells (PBMC) were separated from buffy coats by Ficoll gradient and the same number (3×10^5) of allogeneic PBMC from 2 different donors were co-cultured in 96-well flat-bottom plates. The vitamin D3 compounds were added to each of the cultures.
For orientation: In an ELISA, binding on a coated surface is turned into a signal by an enzyme label.

Series [2] is described as follows: Determination of maximum tolerated dose (MTD), serum calcium / hypercalcemia. The settings on record: female, C57BL/6, mouse, serum, po. The procedure: as §1
In series [3] the test system is EAU-susceptible B10.RIII mice. The series can be described thus: Experimental autoimmune uveoretinitis (EAU) induced with IRBP in CFA. The settings on record: for Prevention of EAU: administered from day −6 to 2. The class given is in vivo. An excerpt: EAU an autoimmune disease mediated by Th1-type uveitogenic CD4+ T cells serves as a model for human posterior uveitis. […] EAU development was followed by funduscopy and confirmed by histopathology on eyes collected 21 days after immunization.

Series [4] relates to primed lymph node cells (LN). The series is described as follows: In vitro assay of primed lymph node cells (LN) from EAU mice: proliferation, polarization, cytokine and chemokine release. In kind it is cell-based. The settings on record: for Inhibition of specific T cell proliferation and T cell polarization: primed lymph node cells, FIG. 4. The text has this:
It can be concluded that delayed hypersensitivity to IRBP in treated mice is correlated with disease severity. […] Preventive treatment remarkably diminished both IFN-gamma and IL-17 production by LN.
In consistency with disease amelioration, Ag driven chemokine release, such as MIP-1a, Rantes and TARC, is inhibited by Vitamin D3 derivatives as shown in FIG. 5. The further mechanism(s) involved in inhibition of EAU by VDR agonists are being investigated.

Entries after “also recorded” stand apart in the source; their conditions may differ.

Regarding `C=C1/C(=C\C=C2/CCC[C@]3(C)C(C(C)CC#CC(O)(C(F)(F)F)C(F)(F)F)=CCC23)CC(OC(C)=O)C[C@@H]1OC(C)=O` (stereo partly drawn) [(14), 1,3-Di-O-acetyl-1,25-dihydroxy-16-ene-23-yne-26,27-hexafluoro-cholecalciferol], the “MTD (mice)” value with female C57BL/6 mice was 10 µg/kg.

As to `C=C1/C(=C\C=C2/CCC[C@]3(C)C(C(C)CC#CC(OC(C)=O)(C(F)(F)F)C(F)(F)F)=CCC23)CC(OC(C)=O)C[C@@H]1OC(C)=O` (stereo partly drawn) [(13), 1,3,25-Tri-O-acetyl-1,25-dihydroxy-16-ene-23-yne-26,27-hexafluoro-cholecalciferol], the “MTD (mice)” value in the series with female C57BL/6 mice is 3 µg/kg.

On to `CC(=O)OC1C/C(=C/C=C2\CCC[C@]3(C)C(C(C)CC#CC(C)(C)O)=CCC23)C[C@@H](OC(C)=O)C1` (stereo partly drawn) [(20), 1,3-Di-O-Acetyl-1,25-dihydroxy-16-ene-23-yne-19-nor-cholecalciferol], for which the half-inhibitory concentration (IC50) – broadly, the concentration at which inhibition is half-maximal – in series [1] is 0.025 nM. In addition, in series [2], the MTD – broadly, the highest dose tested that stayed within the study's limit of toxicity – at 4 days was 30 µg/kg.

As to `CC(=O)OC1C/C(=C/C=C2\CCC[C@]3(C)C(C(C)CCCC(C)(C)O)=CCC23)C[C@@H](OC(C)=O)C1` (stereo partly drawn) [(18), 1,3-Di-O-acetyl-1,25-dihydroxy-16-ene-19-nor-cholecalciferol], the IC50 in series [1] was 0.003 nM. Further, in series [2], the MTD at 4 days was 3 µg/kg.

Turning to `CC(=O)OC1C/C(=C/C=C2\CCC[C@]3(C)C(C(C)CC#CC(OC(C)=O)(C(F)(F)F)C(F)(F)F)=CCC23)C[C@@H](OC(C)=O)C1` (stereo partly drawn) [(5), 1,3,25-Tri-O-acetyl-1,25-Dihydroxy-16-ene-23-yne-26,27-hexafluoro-19-nor-cholecalciferol], in the series with female C57BL/6 mice, the “MTD compared with the corresponding parent dihydroxy compound” value is reported as “considerably-greater; also recorded: significantly higher” and the “MTD (mice)” value was 3 µg/kg.

As for `C=C1/C(=C\C=C2/CCC[C@]3(C)C(C(C)CC#CC(C)(C)O)=CCC23)CC(OC(C)=O)C[C@@H]1OC(C)=O` (stereo partly drawn) [(7), 1,3-Di-O-acetyl-1,25-dihydroxy-16-ene-23-yne-cholecalciferol], the “MTD (mice)” value with female C57BL/6 mice was 10 µg/kg.

Regarding `CC(=O)OC1C/C(=C/C=C2\CCC[C@]3(C)C(C(C)C/C=C\C(O)(C(F)(F)F)C(F)(F)F)=CCC23)C[C@@H](OC(C)=O)C1` (stereo partly drawn) [(2), 1,3-Di-O-acetyl-1,25-dihydroxy-16,23Z-diene-26,27-hexafluoro-19-nor-cholecalciferol], the “MTD compared with the corresponding parent dihydroxy compound” value in the series on female C57BL/6 mice is on record as “significantly higher”.

Take `C=C1/C(=C\C=C2/CCC[C@]3(C)C(C4(CCCC(C)(C)O)CC4)=CCC23)CC(OC(C)=O)C[C@@H]1OC(C)=O` (stereo partly drawn) [(39), 1,3-Di-O-acetyl-1α,25-hydroxy-16-ene-20-cyclopropyl-cholecalciferol]: the “MTD (mice)” value with female C57BL/6 mice is 3 µg/kg.

Turning to `CC(CC#CC(O)(C(F)(F)F)C(F)(F)F)C1=CCC2C(=CC=C3CC(O)CC(O)C3)CCCC12C` (stereo not drawn) [(3), 1,25-dihydroxy-16-ene-23-yne-26,27-hexafluoro-19-nor-cholecalciferol, reference compound], in the series on female C57BL/6 mice, the “MTD (mice)” value is 0.3 µg/kg.

`C=C1/C(=C\C=C2/CCC[C@@]3(C)C2CCC3C(C)CC#CC(C)(C)O)CC(OC(C)=O)C[C@@H]1OC(C)=O` (stereo partly drawn) [(41), 1,3-Di-O-acetyl-1,25-dihydroxy-23-yne-cholecalciferol]: the “MTD (mice)” value in the series with female C57BL/6 mice is 1 µg/kg.

Consider `C=C1/C(=C\C=C2/CCC[C@@]3(C)C2CCC3C2(CC#CC(C)(C)O)CC2)CC(OC(C)=O)C[C@@H]1OC(C)=O` (stereo partly drawn) [(29), 1,3-Di-O-acetyl-1,25-dihydroxy-20-cyclopropyl-23-yne-cholecalciferol], for which, in the series on female C57BL/6 mice, the “MTD (mice)” value is 30 µg/kg.

For the molecule `C=C1/C(=C\C=C2/CCC[C@]3(C)[C@@H]([C@H](C)CCCC(C)(C)O)CC[C@@H]23)C[C@@H](O)C[C@@H]1O` [1,25(OH)2D3, calcitriol, reference compound], the “Prevention of EAU” value in series [3] (calcitriol 0.5 μg/kg orally) is “can prevent EAU; also recorded: effectively prevents EAU”. Moreover, the “Inhibition of specific T cell proliferation and T cell polarization” value in series [4] was “potent”. Also, the IC50 in series [1] stood at 0.022 nM. The MTD at 4 days in series [2] was 1 µg/kg.

As to `CCC(O)(C#CCC(C)C1=CCC2/C(=C/C=C3/CC(OC(C)=O)C[C@H](OC(C)=O)C3)CCC[C@]12C)CC` (stereo partly drawn) [(22), 1,3-Di-O-acetyl-1,25-dihydroxy-16-ene-23-yne-26,27-bishomo-19-nor-cholecalciferol], the “MTD (mice)” value with female C57BL/6 mice was 100 µg/kg.

For `CC(=O)OC1C/C(=C/C=C2\CCC[C@@]3(C)C2CCC3C2(C/C=C/C(O)(C(F)(F)F)C(F)(F)F)CC2)C[C@@H](OC(C)=O)C1` (stereo partly drawn) [(31), 1,3-Di-O-acetyl-1,25-dihydroxy-20-cyclopropyl-23E-ene-26,27-hexafluoro-19-nor-cholecalciferol], the “MTD (mice)” value in the series on female C57BL/6 mice was 0.3 µg/kg.

As for `C=C1/C(=C\C=C2/CCC[C@]3(C)C(C(C)C/C=C/[C@@](C)(O)C(F)(F)F)=CCC23)CC(OC(C)=O)C[C@@H]1OC(C)=O` (stereo partly drawn) [(16), 1,3-Di-O-acetyl-1,25-dihydroxy-16,23E-diene-25R,26-trifluoro-cholecalciferol], in series [1], the IC50 turned out to be 0.0513 nM. In addition, in series [2], the MTD at 4 days is 0.3 µg/kg.

For the molecule `CC(=O)OC1C/C(=C/C=C2\CCC[C@@]3(C)C2CCC3C2(CC#CC(OC(C)=O)(C(F)(F)F)C(F)(F)F)CC2)C[C@@H](OC(C)=O)C1` (stereo partly drawn) [(26), 1,3,25-Tri-O-acetyl-1,25-dihydroxy-20-cyclopropyl-23-yne-26,27-hexafluoro-19-nor-cholecalciferol], the “MTD (mice)” value in the series with female C57BL/6 mice is 10 µg/kg.

Regarding `CC(=O)OC1C/C(=C/C=C2\CCC[C@@]3(C)C2CCC3C2(CC#CC(O)(C(F)(F)F)C(F)(F)F)CC2)C[C@@H](OC(C)=O)C1` (stereo partly drawn) [(27), 1,3-Di-O-acetyl-1,25-dihydroxy-20-cyclopropyl-23-yne-26,27-hexafluoro-19-nor-cholecalciferol], the “MTD (mice)” value with female C57BL/6 mice was 10 µg/kg.

`CC(=O)OC1C/C(=C/C=C2\CCC[C@]3(C)C(C(C)CC#CC(O)(C(F)(F)F)C(F)(F)F)=CCC23)C[C@@H](OC(C)=O)C1` (stereo partly drawn) [(4), 1,3-Di-O-acetyl-1,25-Dihydroxy-16-ene-23-yne-26,27-hexafluoro-19-nor-cholecalciferol]: in the series on female C57BL/6 mice, the “MTD compared with the corresponding parent dihydroxy compound” value is reported as “considerably-greater; also recorded: significantly higher” and the “MTD (mice)” value was 10 µg/kg.

For `CC(=O)OC1C/C(=C/C=C2\CCC[C@@]3(C)C2CCC3C2(C/C=C\C(O)(C(F)(F)F)C(F)(F)F)CC2)C[C@@H](OC(C)=O)C1` (stereo partly drawn) [(33), 1,3-Di-O-acetyl-1,25-dihydroxy-20-cyclopropyl-23Z-ene-26,27-hexafluoro-19-nor-cholecalciferol], the IC50 in series [1] is 0.099 nM. Further, the MTD at 4 days in series [2] was 10 µg/kg.

For the molecule `C=C1/C(=C\C=C2/CCC[C@@]3(C)C2CCC3C2(CCCC(C)(C)O)CC2)C[C@@H](OC(C)=O)C[C@@H]1OC(C)=O` (stereo partly drawn) [Compound (35), 1,3-Di-O-acetyl-1,25-dihydroxy-20-cyclopropyl-cholecalciferol], the “Prevention of EAU” value in series [3] (Compound A 10 μg/kg orally, listed as Compound A) was “can prevent EAU; also recorded: capable of preventing”. The “Inhibition of EAU development, therapeutic treatment” value in series [3] (treatment started 7 days after immunization, listed as Compound A) is recorded as “could inhibit EAU development; also recorded: treating EAU”. The “Inhibition of specific T cell proliferation and T cell polarization” value in series [4] was “potent”. Moreover, in series [4] (therapeutic administration), the IFN-g production result is recorded as “not” and the IL-17 production result is given as “markedly inhibited”. Moreover, the concentration for half-maximal inhibition (IC50) in series [1] was found to be 0.0027 nM. Also, in series [2], the MTD at 4 days was 30 µg/kg.

`CC(=O)OC1C/C(=C/C=C2\CCC[C@]3(C)C(C4(CCCC(C)(C)O)CC4)=CCC23)C[C@@H](OC(C)=O)C1` (stereo partly drawn) [(37), 1,3-Di-O-acetyl-1α,25-dihydroxy-16-ene-20-cyclopropyl-19-nor-cholecalciferol]: the “MTD (mice)” value in the series with female C57BL/6 mice was 10 µg/kg.

`CC(=O)OC1C/C(=C/C=C2\CCC[C@@]3(C)C2CCC3C2(CC#CC(C)(C)O)CC2)C[C@@H](OC(C)=O)C1` (stereo partly drawn) [(24), 1,3-Di-O-acetyl-1,25-dihydroxy-20-cyclopropyl-23-yne-19-nor-cholecalciferol]: the IC50 in series [1] came to 0.802 nM. Besides, the MTD at 4 days in series [2] was 100 µg/kg.

With `C=C1/C(=C\C=C2/CCC[C@]3(C)C(C(C)CCCC(C)(C)O)=CCC23)CC(OC(C)=O)C[C@@H]1OC(C)=O` (stereo partly drawn) [(11), 1,3-Di-O-acetyl-1,25-dihydroxy-16-ene-cholecalciferol], the concentration for half-maximal inhibition (IC50) in series [1] came out at 0.036 nM. The MTD at 4 days in series [2] was 1 µg/kg.

As for `C=C1/C(=C\C=C2/CCC[C@]3(C)C(C(C)C/C=C/C(C)(C)O)=CCC23)CC(OC(C)=O)C[C@@H]1OC(C)=O` (stereo partly drawn) [(9), 1,3-Di-O-acetyl-1,25-dihydroxy-16,23E-diene-cholecalciferol], the IC50 in series [1] turned out to be 0.013 nM. In addition, the MTD at 4 days in series [2] was 3 µg/kg.
